Here are results for three compounds from patent US10646483B2, “Crystal form of imidazolone type compounds, and preparation method, pharmaceutical composition and use thereof” (Foreland Pharma Co., Ltd., priority 2016, dated 2020).

Data set [1] in a line: Solid stability test of Crystal Form I (drug stability test box: high temperature, high humidity, strong illumination). The data set is classed as physicochemical. From the text:
A small amount of Crystal Form I of Compound 1 hydrochloride monohydrate of Example I-1 was taken and placed in a drug stability test box. The conditions were controlled as listed in Table 1 for the stability test. The results of the purities and the contents are listed in Table I-1, and the results of the crystal form tests are shown in FIGS. 4 to 6.

The nature of data set [2]: Tableting stability test (XRPD before and after tableting). The data set is classed as physicochemical. The settings on record: manually tableted, 8 mm tablets, ground, FIG. 7. From the text: A small amount of Crystal Form I of Compound 1 hydrochloride monohydrate of Example 1 was taken and manually tableted to tablets with a diameter of 8 mm. The tablets were then gently ground. […] The XRPD patterns of the powders before and after the tableting of Crystal Form I were compared.

A short description of data set [3]: Metabolic experiments after oral (intragastric) administration to SD rats. The data set is classed as in vivo. The settings on record: 10 mg/kg; for AUC(0-inf) / AUC(0-t) / MRT / Tmax / Cmax / half-life: rat, po. On the procedure:
11.392 mg of Crystal Form I of Compound 1 hydrochloride was suspended in […] of 0.5% sodium carboxymethylcellulose, mixed to form a homogenous suspension, and then sonicated for 2 min to give a homogenous suspension having a concentration of 2 mg/mL (the suspension present was prepared on the day of administration, and stored for no more than 4 hours). Three SD rats were intragastrically administered at a dose of 10 mg/kg body weight, and blood analysis was performed at the set time points.

The nature of data set [4]: Test of dissolution rate in distilled water. The data set is classed as physicochemical. The settings on record: 3 mg in 1 ml distilled water, shaken at 20-25° C. for 5 seconds. On the procedure:
3 mg each of Crystal Form VII, Crystal Form I, and Crystal Form VI, were weighed, and put into three 1 ml plastic centrifuge tubes, respectively. To each tube was added 1 ml of distilled water and shaken at 20-25° C. for 5 seconds.

Setting [5] is: Active Pharmaceutical Ingredient, Initial.
The mark [6] stands for this setting: Illumination (4500 Lx ± 500 Lx), Day 5.
Setting [7] is: Illumination (4500 Lx ± 500 Lx), Day 10.
[8] abbreviates: high temperature, high humidity and strong illumination, up to Day 10.
[9] abbreviates: SD (Sprague-Dawley), blood, SD rat, Rat 1.
The mark [10] stands for this setting: SD (Sprague-Dawley), blood, SD rat, Rat 2.
The mark [11] stands for this setting: SD (Sprague-Dawley), blood, SD rats, Average of three rats.

Like-named read-outs stand apart in the source and are kept apart here.

For the compound `Cn1cc(-c2ccc(-c3ccc4ncc5c(c4c3)n([C@H]3CC[C@@H](O)CC3)c(=O)n5C)cn2)cn1` [Crystal Form I, 1-((1s,4s)-4-hydroxycyclohexyl)-3-methyl-8-(6-(1-methyl-1H-pyrazol-4-yl)pyridin-3-yl)-1H-imidazo[4,5-c]quinoline-2(3H)-one], the Content % in data set [1] (25° C./95% RH, Day 5) is reported as 100.86%; in data set [1] (25° C./95% RH, Day 10), 99.61%; in data set [1] (60° C., Day 5), 99.62%; in data set [1] (60° C., Day 10), 99.51%; in data set [1] (setting [5]), 100.41%; in data set [1] (setting [6]), 99.84%. This compound also yielded a Content % in data set [1] (setting [7]) of 99.50%. In addition, the Impurity % is on record as 0.72% in data set [1] (25° C./95% RH, Day 5); 0.74% in data set [1] (25° C./95% RH, Day 10); 0.73% in data set [1] (60° C., Day 5); 0.79% in data set [1] (60° C., Day 10); 0.74% in data set [1] (setting [5]); 0.93% in data set [1] (setting [6]). Besides, the Impurity % in data set [1] (setting [7]) was 0.87%. In addition, the Purity % in data set [1] (25° C./95% RH, Day 5) stood at 99.28%; in data set [1] (25° C./95% RH, Day 10), 99.26%; in data set [1] (60° C., Day 5), 99.27%; in data set [1] (60° C., Day 10), 99.21%; in data set [1] (setting [5]) it was 99.26%; in data set [1] (setting [6]), 99.07%. In data set [1] (setting [7]), this compound returned a Purity % of 99.13%. For the same compound, the “crystal form (XRPD) after stability test” value in data set [1] (high temperature, high humidity and strong illumination (FIGS. 4 to 6)) is “remains unchanged”. Further, in data set [1] (setting [8]), the “fluctuation of the content” value is not above 1%. Besides, the “fluctuation of the purity” value in data set [1] (setting [8]) was not above 0.2%. Moreover, the “effect of tableting process on crystal form (XRPD)” value in data set [2] is on record as “did not change”. Besides, the AUC(0-inf) in data set [3] (setting [9]) came out at 247 µg·h/mL; in data set [3] (setting [10]), 192 µg·h/mL; in data set [3] (setting [11]), 201 µg·h/mL; in data set [3] (SD, plasma, SD rat, Rat 3), 163 µg·h/mL. Further, the AUC(0-t) in data set [3] (setting [9]) was 235 µg·h/mL; in data set [3] (setting [10]), 183 µg·h/mL; in data set [3] (setting [11]), 191 µg·h/mL; in data set [3] (SD, plasma, SD rat, Rat 3), 154 µg·h/mL; in data set [3] (SD, plasma, SD rats, average value), 191 µg·h/mL. Further, the MRT turned out to be 6.74 h in data set [3] (setting [9]); 7.13 h in data set [3] (setting [10]); 6.84 h in data set [3] (setting [11]); 6.65 h in data set [3] (SD, plasma, SD rat, Rat 3). Moreover, the Tmax in data set [3] (setting [9]) worked out at 2.8 h; in data set [3] (setting [10]), 4 h; in data set [3] (SD, plasma, SD rat, Rat 3), 2.5 h; in data set [3] (SD, plasma, SD rats, Average of three rats), 3.1 h. The Cmax was found to be 19000 ng/mL in data set [3] (SD (Sprague-Dawley), blood, SD rat, Rat 1, read-out: Cmax); 12100 ng/mL in data set [3] (SD (Sprague-Dawley), blood, SD rat, Rat 2, read-out: Cmax); 12700 ng/mL in data set [3] (SD, plasma, SD rat, Rat 3, read-out: Cmax); 14600 ng/mL in data set [3] (SD, plasma, SD rats, Average of three rats, read-out: Cmax); 14600 ng/mL in data set [3] (SD, plasma, SD rats, average value, read-out: maximum plasma concentration (Cmax)). The half-life in data set [3] (SD (Sprague-Dawley), blood, SD rat, Rat 2, read-out: t½ (converted)) is 324 min; in data set [3] (SD (Sprague-Dawley), blood, SD rat, suspension in 0.5% sodium carboxymethylcellulose, Rat 1, read-out: t½ (converted)), 317 min; in data set [3] (SD, plasma, SD rat, Rat 3, read-out: t½ (converted)), 349 min; in data set [3] (SD, plasma, SD rats, Average of three rats, read-out: t½ (converted)), 330 min; in data set [3] (SD, plasma, SD rats, average value, read-out: half-life (converted)) it was 330 min. Also, the “AUC Extr” value in data set [3] (SD rat, Rat 1) amounted to 4.72%; in data set [3] (SD rat, Rat 2) it was 4.70%; in data set [3] (SD rat, Rat 3), 5.96%; in data set [3] (SD rats, Average of three rats), 5.13%. The AUC/D came to 11758 ng·kg·h/mg/mL in data set [3] (SD rat, Rat 1); 9171 ng·kg·h/mg/mL in data set [3] (SD rat, Rat 2); 7675 ng·kg·h/mg/mL in data set [3] (SD rat, Rat 3); 9535 ng·kg·h/mg/mL in data set [3] (SD rats, Average of three rats). Besides, the “time to dissolve completely” value in data set [4] is 5 h. Besides, the “time to dissolve substantially” value in data set [4] was 2 h.

With `Cn1cc(-c2ccc(-c3ccc4ncc5c(c4c3)n([C@H]3CC[C@@H](O)CC3)c(=O)n5C)cn2)cn1` [Crystal Form VI, 1-((1s,4s)-4-hydroxycyclohexyl)-3-methyl-8-(6-(1-methyl-1H-pyrazol-4-yl)pyridin-3-yl)-1H-imidazo[4,5-c]quinoline-2(3H)-one], in data set [4], the “time to dissolve completely” value is more than 5 h.

Turning to `Cn1cc(-c2ccc(-c3ccc4ncc5c(c4c3)n([C@H]3CC[C@@H](O)CC3)c(=O)n5C)cn2)cn1` [Crystal Form VII, 1-((1s,4s)-4-hydroxycyclohexyl)-3-methyl-8-(6-(1-methyl-1H-pyrazol-4-yl)pyridin-3-yl)-1H-imidazo[4,5-c]quinoline-2(3H)-one], the “time to dissolve completely” value in data set [4] was not above 0.00278 h.

Broadly, the AUC(0-inf) is the area under the concentration-time curve extrapolated to infinity. One may read the AUC(0-t) as the area under the concentration-time curve up to a stated or last time point. A lower AUC(0-t) goes with less exposure. The term MRT denotes a mean duration of stay, worked out from the concentration-time curve. Broadly, the Tmax is the time at which the peak concentration occurs.
